Patent publication US9403829B2, “Pharmaceutical compositions of 7-(6-(2-hydroxypropan-2-yl)pyridin-3-yl)-1-((trans)-4-methoxycyclohexyl)-3,4-dihydropyrazino [2,3-b]pyrazin-2(1H)-one, a solid form thereof and methods of their use” (Signal Pharmaceuticals, LLC, priority 2011, dated 2016)
Where two headings read alike, the source gives them in different places.

Assay: Pharmacokinetics of the metabolite produced in vivo after administration of 7.5-60 mg Compound A
Details: human; for AUC(0-t): read-out: AUC0-24; for concentration at 15 day: read-out: Ctrough
Method: In certain embodiments, the pharmacokinetic parameters in connection with the metabolite of Compound A produced via administration of 7.5 mg, 15 mg, 30 mg, 45 mg and 60 mg of Compound A are obtained using the protocol set forth in Section 5.2.1 (paragraphs [00497]-[00520]) of U.S. provisional application No. 61/653,436, filed May 31, 2012, which is incorporated by reference herein in its entirety.
In certain embodiments, the pharmacokinetic parameters set forth herein are mean values obtained from multiple subjects.
In certain embodiments, the metabolite of Compound A is the O-desmethyl metabolite.

[1] = 7.5 mg, day 1 of administration of about 7.5 mg of Compound A
[2] = 7.5 mg, on day (number not given) of once a day administration of about 7.5 mg of Compound A
[3] = 15 mg, day 1 of administration of about 15 mg of Compound A
[4] = 15 mg, on day (number not given) of once a day administration of about 15 mg of Compound A
[5] = 30 mg, day 1 of administration of about 30 mg of Compound A
[6] = 30 mg, day 15 of once a day administration of about 30 mg of Compound A
[7] = 45 mg, day 1 of administration of about 45 mg of Compound A
[8] = 45 mg, day 15 of once a day administration of about 45 mg of Compound A
[9] = 60 mg, day 1 of administration of about 60 mg of Compound A
[10] = 60 mg, day 15 of once a day administration of about 60 mg of Compound A

AUC(0-inf) [1]: 7950 ng·h/mL
Cmax [1]: 143 ng/mL
Tmax [1]: 8 h
half-life [1]: 35 h
AUC(0-t) [1]: 2740 ng·h/mL
AUC(0-inf) [2]: 45600 ng·h/mL
Cmax [2]: 363 ng/mL
Tmax [2]: 2 h
AUC(0-t) [2]: 6400 ng·h/mL
AUC(0-inf) [3]: 5820 ng·h/mL
Cmax [3]: 309 ng/mL
Tmax [3]: 2 h
half-life [3]: 12 h
AUC(0-t) [3]: 3830 ng·h/mL
AUC(0-inf) [4]: 9750 ng·h/mL
Cmax [4]: 458 ng/mL
Tmax [4]: 3 h
AUC(0-t) [4]: 5680 ng·h/mL
AUC(0-inf) [5]: 27700 ng·h/mL
Cmax [5]: 776 ng/mL
Tmax [5]: 7 h
half-life [5]: 21 h
AUC(0-t) [5]: 13300 ng·h/mL
AUC(0-inf) [6]: 118000 ng·h/mL
Cmax [6]: 1770 ng/mL
Tmax [6]: 2 h
AUC(0-t) [6]: 29400 ng·h/mL
AUC(0-inf) [7]: 27300 ng·h/mL
Cmax [7]: 1150 ng/mL
Tmax [7]: 3 h
half-life [7]: 17 h
AUC(0-t) [7]: 15900 ng·h/mL
AUC(0-inf) [8]: 77700 ng·h/mL
Cmax [8]: 2240 ng/mL
Tmax [8]: 2 h
AUC(0-t) [8]: 32700 ng·h/mL
AUC(0-inf) [9]: 37500 ng·h/mL
Cmax [9]: 1440 ng/mL
Tmax [9]: 4 to 6 h
half-life [9]: 16 h
AUC(0-t) [9]: 21500 ng·h/mL
AUC(0-inf) [10]: 138000 ng·h/mL
Cmax [10]: 2520 ng/mL
Tmax [10]: 3 h
AUC(0-t) [10]: 46900 ng·h/mL
concentration at 15 day (day 15 of once a day administration of about 30 mg of Compound A): 1100 ng/mL
concentration at 15 day (day 15 of once a day administration of about 45 mg of Compound A): 1180 ng/mL
concentration at 15 day (day 15 of once a day administration of about 60 mg of Compound A): 1470 ng/mL
Structure (SMILES): CC(C)(O)c1ccc(-c2cnc3c(n2)N([C@H]2CC[C@H](O)CC2)C(=O)CN3)cn1 [O-Desmethyl metabolite, 1-((1r,4r)-4-hydroxycyclohexyl)-7-(6-(2-hydroxypropan-2-yl)pyridin-3-yl)-3,4-dihydropyrazino[2,3-b]pyrazin-2(1H)-one]
